Like-named read-outs stand apart in the source and are kept apart here.
Legend:
Acsl4 [1] = target: T1, Acsl4 (Rattus norvegicus, UniProt O35547); assay: radiometric acyl-CoA synthetase assay; assay type: biochemical
Acsl4 [2] = target: T1, Acsl4; assay type: biochemical
Acsl4 [3] = target: T1, Acsl4; assay: radiometric acyl-CoA synthetase assay; assay type: biochemical; settings: read-out: Substrate / AA
Acsl3 = Acsl3 (Rattus norvegicus, UniProt Q63151); assay: radiometric acyl-CoA synthetase assay, […] inhibition at […]; assay type: cell-based; settings: read-out: % inhibition at 10 μM
Chain of Acsl3 (Q63151 whole entry): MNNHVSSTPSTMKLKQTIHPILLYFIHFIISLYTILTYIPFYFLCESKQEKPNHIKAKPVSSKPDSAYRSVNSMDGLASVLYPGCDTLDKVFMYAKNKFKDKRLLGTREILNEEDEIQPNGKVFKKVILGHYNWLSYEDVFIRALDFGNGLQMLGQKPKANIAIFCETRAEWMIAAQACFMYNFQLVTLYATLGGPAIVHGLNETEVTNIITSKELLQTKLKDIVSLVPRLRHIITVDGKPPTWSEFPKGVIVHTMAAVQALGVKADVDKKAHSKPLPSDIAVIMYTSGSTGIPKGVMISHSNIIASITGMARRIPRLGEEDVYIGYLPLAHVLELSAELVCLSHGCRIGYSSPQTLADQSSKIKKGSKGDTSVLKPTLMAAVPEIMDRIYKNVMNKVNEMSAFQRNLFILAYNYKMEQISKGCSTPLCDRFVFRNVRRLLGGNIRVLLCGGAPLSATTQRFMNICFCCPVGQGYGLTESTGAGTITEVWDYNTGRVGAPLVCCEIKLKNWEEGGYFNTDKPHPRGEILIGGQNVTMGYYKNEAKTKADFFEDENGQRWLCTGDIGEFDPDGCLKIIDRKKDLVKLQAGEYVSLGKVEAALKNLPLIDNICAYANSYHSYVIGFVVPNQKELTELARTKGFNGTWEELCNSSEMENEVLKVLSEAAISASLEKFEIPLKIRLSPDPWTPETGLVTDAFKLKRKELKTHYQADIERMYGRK

Acsl4 [4] = target: T1, Acsl4; assay: as above; assay type: cell-based; settings: read-out: % inhibition at 10 μM

T1 sequence (O35547 whole entry): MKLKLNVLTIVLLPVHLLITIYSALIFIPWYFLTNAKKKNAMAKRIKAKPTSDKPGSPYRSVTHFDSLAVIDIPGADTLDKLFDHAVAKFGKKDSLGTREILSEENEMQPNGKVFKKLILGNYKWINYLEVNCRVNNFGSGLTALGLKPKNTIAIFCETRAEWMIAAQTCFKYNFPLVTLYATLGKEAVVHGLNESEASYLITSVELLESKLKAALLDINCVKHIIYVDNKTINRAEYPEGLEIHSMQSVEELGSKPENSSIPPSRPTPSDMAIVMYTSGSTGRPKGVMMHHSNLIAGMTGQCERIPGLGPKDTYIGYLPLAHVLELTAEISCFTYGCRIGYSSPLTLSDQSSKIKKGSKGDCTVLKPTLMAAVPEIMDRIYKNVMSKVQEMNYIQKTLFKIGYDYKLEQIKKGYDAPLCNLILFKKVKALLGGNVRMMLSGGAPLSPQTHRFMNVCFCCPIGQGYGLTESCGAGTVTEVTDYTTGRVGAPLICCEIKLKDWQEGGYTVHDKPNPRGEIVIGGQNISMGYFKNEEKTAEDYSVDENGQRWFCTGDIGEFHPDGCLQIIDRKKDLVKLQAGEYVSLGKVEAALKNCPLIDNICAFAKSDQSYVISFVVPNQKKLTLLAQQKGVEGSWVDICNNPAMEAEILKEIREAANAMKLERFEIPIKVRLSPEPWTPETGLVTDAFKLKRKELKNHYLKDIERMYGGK

CCCCCCCCCCCCCCCC(=O)O [palmitic acid]
Km (Acsl4 [1]; read-out: Substrate / Palmitic Acid): 16.7 ± 6.25 µM

CCCC(CCC)C(=O)O [VPA, valproate]
Ki (Acsl4 [2]): 24.9 ± 2.61 mM

CCCCC/C=C\C/C=C\C/C=C\C/C=C\CCCC(=O)O [AA, arachidonic acid]
Km (Acsl4 [3]): 4.98 ± 1.41 µM

CC/C=C\C/C=C\C/C=C\C/C=C\C/C=C\C/C=C\CCC(=O)O [DHA, docosahexaenoic acid]
Km (Acsl4 [1]; read-out: Substrate / DHA): 26.6 ± 3.95 µM

CCC/C=C/C/C=C/C=C/C=N/NN=O [triacsin C]
inhibition at 10 µM (Acsl3): 90%
inhibition at 10 µM (Acsl4 [4]): 85%
